Article PMC4140816, “Differential Sensitivity of Src-Family Kinases to Activation by SH3 Domain Displacement” (PLoS ONE, 2014)
Values joined by “and” are separate entries in the source; they are usually repeats but may differ in a detail not shown here. Identical values can stand only once. Like-named read-outs stand apart in the source and are kept apart here.

How the values were obtained:
[1] = biological target: Hck-YEEI (Homo sapiens, UniProt P08631, Q523E/Q524E/Q525I); assay: Km determination, ADP Quest assay, Hck-YEEI; format: biochemical; conditions: pH 7.4, 25°C, 150 ng/well kinase, mean ±S.E.
[2] = biological target: Src-YEEI (Homo sapiens, UniProt P12931); format: biochemical; conditions: pH 7.4; read-out: Km YIYGSFK
[3] = biological target: Fyn-YEEI (Homo sapiens, UniProt P06241); assay: Km determination, ADP Quest assay, Fyn-YEEI; format: biochemical; conditions: pH 7.4, 25°C, 150 ng/well kinase, mean ±S.E.
[4] = biological target: Lyn-YEEI (Homo sapiens, UniProt P07948, Q509E/Q510E/Q511I); assay: Km determination, ADP Quest assay, Lyn-YEEI; format: biochemical; conditions: pH 7.4, 25°C, 250 ng/well kinase, mean ±S.E.
[5] = biological target: Lyn SH3 domain (Homo sapiens, UniProt P07948); assay: SPR, VSL12 binding to Lyn SH3; conditions: biotinylated VSL12 on SA chip, 25°C, duplicate runs
Procedure: The biotinylated peptide was immobilized to 80 Response Units (RU) on the surface of a streptavidin (SA) biosensor chip. The recombinant purified Src SH3 domain proteins were flowed past the peptide over the concentration ranges shown. Association was measured for 180 s, followed by a 300 s dissociation phase.
The C-terminus of each construct was modified by the addition of the sequence […] as encoded by the XhoI site and the His6 tag in the vector. For expression of the SH3 and SH2 domains, E. coli strain Rosetta 2(DE3)pLysS (EMD Millipore) was transformed with each plasmid and cultures were grown at 37°C until the OD600 reached 0.8–1.0. Protein expression was induced with 0.4 mM isopropyl -D-thiogalactopyranoside (IPTG) for 4 h at 25°C. The isolated KDs were expressed as previously described by Seeliger, et al. For purification, cell pellets were resuspended in ion-exchange start buffer (20 mM Tris-HCl, pH 8.5, 5 mM -mercaptoethanol, 10% glycerol), sonicated, and clarified by centrifugation. […] Recombinant purified protein concentrations were quantified by Bradford assay using the BioRad Protein Assay Dye Reagent Concentrate and purified BSA as a reference standard (Pierce).
SPR experiments were performed using a Biacore 3000 Instrument (GE Healthcare) on a streptavidin (SA) biosensor chip. […] Association was measured for 180 s, followed by 300 s of dissociation in HBS-EP running buffer. […]

[6] = ATP held constant at 200 (µM), n = 4, read-out: Km YIYGSFK
[7] = peptide substrate at Km, n = 3, read-out: Km ATP

Fyn-YEEI, sequence (P06241 with tags, fused parts or gaps): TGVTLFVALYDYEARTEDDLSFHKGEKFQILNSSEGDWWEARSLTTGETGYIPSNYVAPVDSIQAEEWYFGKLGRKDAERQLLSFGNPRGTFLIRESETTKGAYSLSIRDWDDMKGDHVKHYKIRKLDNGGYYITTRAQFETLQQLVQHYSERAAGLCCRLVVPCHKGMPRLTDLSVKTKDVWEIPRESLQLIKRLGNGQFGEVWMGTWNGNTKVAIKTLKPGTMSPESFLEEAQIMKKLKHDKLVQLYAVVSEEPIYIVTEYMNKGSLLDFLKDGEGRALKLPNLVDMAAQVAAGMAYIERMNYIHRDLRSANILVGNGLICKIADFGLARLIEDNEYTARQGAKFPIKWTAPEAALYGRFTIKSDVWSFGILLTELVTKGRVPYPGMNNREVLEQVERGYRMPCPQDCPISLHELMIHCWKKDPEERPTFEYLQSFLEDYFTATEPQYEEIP
Lyn SH3 domain, sequence (P07948 63-123 limits assumed): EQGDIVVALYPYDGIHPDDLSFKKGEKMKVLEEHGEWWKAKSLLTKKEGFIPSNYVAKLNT
Hck-YEEI, sequence (P08631 78-526 Q523E/Q524E/Q525I limits assumed): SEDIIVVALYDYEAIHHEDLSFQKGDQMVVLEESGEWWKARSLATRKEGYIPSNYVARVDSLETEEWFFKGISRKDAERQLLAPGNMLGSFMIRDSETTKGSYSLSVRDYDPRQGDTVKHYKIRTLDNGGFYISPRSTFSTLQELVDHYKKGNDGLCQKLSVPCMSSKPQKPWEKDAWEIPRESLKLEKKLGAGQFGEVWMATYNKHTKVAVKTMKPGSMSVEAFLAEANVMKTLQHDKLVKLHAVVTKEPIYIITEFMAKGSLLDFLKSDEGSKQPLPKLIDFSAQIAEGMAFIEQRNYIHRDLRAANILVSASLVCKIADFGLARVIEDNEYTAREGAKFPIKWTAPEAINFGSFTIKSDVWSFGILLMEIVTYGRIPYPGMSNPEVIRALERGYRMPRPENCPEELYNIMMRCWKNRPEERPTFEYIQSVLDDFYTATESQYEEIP
Lyn-YEEI, sequence (P07948 63-512 Q509E/Q510E/Q511I limits assumed): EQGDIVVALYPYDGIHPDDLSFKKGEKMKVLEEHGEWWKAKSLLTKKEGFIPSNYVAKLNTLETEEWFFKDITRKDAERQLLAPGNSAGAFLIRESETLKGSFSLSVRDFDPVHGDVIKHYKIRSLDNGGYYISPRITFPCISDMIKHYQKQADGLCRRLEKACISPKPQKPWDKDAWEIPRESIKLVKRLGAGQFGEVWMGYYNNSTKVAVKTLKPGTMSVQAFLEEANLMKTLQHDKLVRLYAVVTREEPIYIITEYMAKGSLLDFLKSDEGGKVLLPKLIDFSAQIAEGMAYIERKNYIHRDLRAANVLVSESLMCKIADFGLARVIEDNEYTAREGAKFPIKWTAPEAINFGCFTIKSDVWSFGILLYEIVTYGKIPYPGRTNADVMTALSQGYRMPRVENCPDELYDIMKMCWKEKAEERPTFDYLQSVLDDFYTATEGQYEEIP

In the case of “YIYGSFK [SFK substrate peptide; Anaspec]”, the Km [1, 6] is reported as 83.8 ± 12.5 µM, the Km [2] is reported as 159 µM and the Km [3, 6] is reported as 70 µM and 69.6 µM. For the same compound, the Km [4, 6] was 83.2 ± 4.9 µM.
Compound `CC(C)C[C@H](NC(=O)[C@H](CO)NC(=O)[C@@H](N)C(C)C)C(=O)N[C@@H](C)C(=O)N[C@@H](CCCN=C(N)N)C(=O)N[C@@H](CCCN=C(N)N)C(=O)N1CCC[C@H]1C(=O)N[C@@H](CC(C)C)C(=O)N1CCC[C@H]1C(=O)N1CCC[C@H]1C(=O)N[C@@H](CC(C)C)C(=O)N1CCC[C@H]1C(=O)O` [VSL12] has a Kd ([5]; 31.25-250 nM SH3, 1:1 Langmuir fit, χ^2 1.850, read-out: Kinetic KD) of 647 nM and a Kd ([5]; 31.25-250 nM SH3, steady state model, χ^2 0.225, read-out: Steady-State KD) of 562 nM.
With `Nc1ncnc2c1ncn2[C@@H]1O[C@H](COP(=O)(O)OP(=O)(O)OP(=O)(O)O)[C@@H](O)[C@H]1O` [ATP] the Km [1, 7] was 55.8 ± 18.5 µM, the Km [3, 7] was 49.7 ± 8.2 µM and the Km [4, 7] was 31.1 ± 9.7 µM.
